Results as given in patent US12428408B2, “Fused heterocyclic mescaline derivatives” (Enveric Biosciences Canada Inc., priority 2022, dated 2025).
Where two headings read alike, the source gives them in different places.

Columns and labels:
[1] = test system: Human NT2/D1 precursor cells (NT2/D1); experiment: Neuroplastogenicity assay using human model (NT2) neurons; format: cell-based; details: RA-treated NT2 cells, 1 μM, 48 hours, vs 0.1% DMSO
Description: The compound with formula A(XXXII) was assayed for neuroplastogenic potential using the following procedure. Human NT2/D1 precursor cells (NT2/D1) were purchased from the American Type Culture Collection (ATCC, Manassas, VA, USA). The neuronal differentiation was carried out as previously described (Roloff et al., 2015, PLOS ONE e0118536:1-14; Roloff et al., 2013, BMC Neuroscience 14:141-155) with minor modifications. First, NT2/D1 cells were seeded in T-25 suspension culture flasks (REF #690190, Greiner bio-one, Germany). Each flask contained a minimum of 5×10^6 cells in 10 ml of DMEM/F12 supplemented with 10% fetal bovine serum (FBS), 1% penicillin and streptomycin and 10 μM retinoic acid (RA medium) to start neuronal differentiation. The cells were cultured for 3 days in free floating medium. At the end of the incubation, cells were trypsinized and collected by centrifugation, mechanically dispersed, and counted. Counted cells were seeded on Poly D-Lysine (PDL) coated cover slips (12 mm; diameter round, Fisher Scientific; GG-12-PDL) containing minimum of 0.1×10^5 cells in culture medium without RA. The next day, culture medium was replaced with RA medium containing 2% of FBS. These cells were cultured for 5 days, with a change of RA medium two days later. For the neuronal outgrowth assay, after cells had successfully attached and established under coverslips, the RA medium was replaced with one of the following: (1) test molecules at one of two different concentrations (10 μm or 1 μm); (2) positive control ROCK inhibitor Y-27632, (Dihydrochloride, Sigma-Aldrich); (2) positive control ibuprofen (14883-1G; Sigma-Aldrich), or (4) negative control culture medium containing 2% of FBS. Cells under these conditions were incubated for 48 hours under standard conditions (37° C., 5% CO2) in an incubator prior to the immunofluorescent assay.
For the immunofluorescent assay, the treated cells housed under coverslips were collected after 48 hours of drug treatments. These coverslips washed with calcium chloride-free and magnesium chloride-free phosphate buffered saline (PBS) pH 7.4 (Gibco, #70011-044) and fixed using paraformaldehyde (PFA) 4% in PBS (#J61899, thermoscientific) for 15 min at room temperature (RT) and washed three times with 0.01% of Triton-X100 in PBS (PBST) to remove remaining PFA and to permeabilize the cells. Unspecific binding sites were blocked with 5% Bovine Serum Albumin (BSA) solution (#9048-46-8, Millipore) in PBST for 60 minutes at RT. Rabbit monoclonal antibody β-III-Tubulin (1:5,000, ab52623, Abcam) was applied overnight (O/N) at 4° C. […] Finally, the immunofluorescence images were detected by using Olympus VS110 slide scanner microscope. […]

D2 (h) = target: T1, D2 (h) (Homo sapiens, UniProt P14416); experiment: Competition assay to measure binding affinity at D2L receptor; details: test ligand 10 μM; [3H]methylspiperone 0.3 nM
T1 construct: host or cells: HEK-293 cells

alpha2A (h) = target: T2, alpha2A (h) (Homo sapiens, UniProt P08913); experiment: Competition assay to measure binding affinity at alpha2A receptor; details: test ligand 10 μM, [3H]RX 821002 1 nM
T2 construct: host or cells: CHO cells
T2 sequence (P08913 1-465): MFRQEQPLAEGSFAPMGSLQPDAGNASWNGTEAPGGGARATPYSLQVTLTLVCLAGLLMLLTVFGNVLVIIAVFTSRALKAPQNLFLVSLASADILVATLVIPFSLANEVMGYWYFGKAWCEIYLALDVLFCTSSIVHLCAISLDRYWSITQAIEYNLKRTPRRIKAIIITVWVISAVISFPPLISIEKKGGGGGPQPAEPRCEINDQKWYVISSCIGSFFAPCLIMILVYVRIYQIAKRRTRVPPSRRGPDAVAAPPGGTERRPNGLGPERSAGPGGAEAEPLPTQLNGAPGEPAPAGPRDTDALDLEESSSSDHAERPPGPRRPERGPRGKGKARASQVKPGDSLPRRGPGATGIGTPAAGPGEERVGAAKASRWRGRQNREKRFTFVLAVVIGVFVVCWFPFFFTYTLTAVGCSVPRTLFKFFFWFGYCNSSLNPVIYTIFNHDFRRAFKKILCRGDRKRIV

[2] = target: T3, human serotonin transporter (SERT) (Homo sapiens, UniProt P31645); experiment: biochemical; format: binding
T3 construct: purchased PerkinElmer RBHSTM400UA

5-HT1D (r) = target: T4, 5-HT1D (r) (Rattus norvegicus, UniProt P28565); experiment: Competition assay to measure binding affinity at 5-HT1D receptor; details: test ligand 10 μM; [3H]serotonin 1 nM
T4 construct: host or cells: CHO cells

5-HT1A receptor = target: T5, 5-HT1A receptor (Homo sapiens, UniProt P08908); experiment: 5-HT1A receptor radioligand competition assay (SPA); format: binding; details: for 5-HT1A receptor binding, binding curve in words: FIGS. 35C-35L
T5 construct: purchased Perkin Elmer 6110501400UA
T5 sequence (P08908 1-422): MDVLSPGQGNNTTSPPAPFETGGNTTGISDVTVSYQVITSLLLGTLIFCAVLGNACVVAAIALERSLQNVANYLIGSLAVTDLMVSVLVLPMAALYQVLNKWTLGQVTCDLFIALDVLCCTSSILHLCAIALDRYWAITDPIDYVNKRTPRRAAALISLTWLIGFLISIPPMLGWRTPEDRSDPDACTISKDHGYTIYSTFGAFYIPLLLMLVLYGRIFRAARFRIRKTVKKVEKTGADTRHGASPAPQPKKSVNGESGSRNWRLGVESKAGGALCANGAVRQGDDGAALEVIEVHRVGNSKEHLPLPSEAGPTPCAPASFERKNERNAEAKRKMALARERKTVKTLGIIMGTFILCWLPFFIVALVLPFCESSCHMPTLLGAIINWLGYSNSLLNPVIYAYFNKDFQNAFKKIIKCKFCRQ

D3 (h) = target: T6, D3 (h) (Homo sapiens, UniProt P35462); experiment: Competition assay to measure binding affinity at D3 receptor; details: test ligand 10 μM; [3H]methylspiperone […]
T6 construct: host or cells: CHO cells

DAT (h) = target: T7, DAT (h) (Homo sapiens, UniProt Q01959); experiment: Competition assay to measure binding affinity at dopamine transporter (DAT); details: test ligand 10 μM; [3H]BTCP 4 nM
T7 construct: host or cells: CHO cells

5-HT2B (h) = target: T8, 5-HT2B (h) (Homo sapiens, UniProt P41595); experiment: Competition assay to measure binding affinity at 5-HT2B receptor; details: test ligand 10 μM; [3H]mesulergine 2 nM
T8 construct: host or cells: CHO cells

MT1 (ML1A) (h) = target: T9, MT1 (ML1A) (h) (Homo sapiens, UniProt P48039); experiment: Competition assay to measure binding affinity at MT1 receptor; details: test ligand 10 μM; [125I]2-iodomelatonin 0.01 nM
T9 construct: host or cells: CHO cells

[3] = test system: C57BL/6-Elite male and female mice; experiment: Ear-Scratch Response (ESR) assay; format: in vivo, mouse; details: i.p. 6 mg/kg, 15-to-30-minute window following drug administration
NET (h) = target: T10, NET (h) (Homo sapiens, UniProt P23975); experiment: Competition assay to measure binding affinity at norepinephrine transporter (NET); details: test ligand 10 μM; [3H]nisoxetine 1 nM
T10 construct: host or cells: CHO cells

5-HT7 (h) = target: T11, 5-HT7 (h) (Homo sapiens, UniProt P34969); experiment: Competition assay to measure binding affinity at 5-HT7 receptor; details: test ligand 10 μM; [3H]LSD 4 nM
T11 construct: host or cells: HEK-293 cells

5-HT2C (h) = target: T12, 5-HT2C (h) (Homo sapiens, UniProt P28335); experiment: Competition assay to measure binding affinity at 5-HT2C receptor; details: test ligand 10 μM; [125I](±)DOI 0.1 nM
T12 construct: host or cells: HEK-293 cells
T12 sequence (P28335 33-458): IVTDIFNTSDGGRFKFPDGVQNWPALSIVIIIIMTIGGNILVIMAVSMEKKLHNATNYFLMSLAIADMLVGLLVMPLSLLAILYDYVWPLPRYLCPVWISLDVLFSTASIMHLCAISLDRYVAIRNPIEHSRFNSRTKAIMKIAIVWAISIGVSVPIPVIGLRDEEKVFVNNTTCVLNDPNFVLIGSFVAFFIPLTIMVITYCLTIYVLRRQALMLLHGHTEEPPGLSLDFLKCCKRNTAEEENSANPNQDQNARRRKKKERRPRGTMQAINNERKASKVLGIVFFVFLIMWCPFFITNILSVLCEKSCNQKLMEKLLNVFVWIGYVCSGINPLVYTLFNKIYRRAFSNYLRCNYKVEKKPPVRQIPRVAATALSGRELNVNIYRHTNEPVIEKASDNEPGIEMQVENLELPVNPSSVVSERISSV

5-HT2A receptor = 5-HT2A receptor (Homo sapiens, UniProt P28223); experiment: 5-HT2A receptor radioligand competition assay (SPA); details: read-out: 5-HT2A, Ki; competition with 1 nM [3H]ketanserin; test compound 3 nM to 1 mM
5-HT1B (h) = target: T13, 5-HT1B (h) (Homo sapiens, UniProt P28222); experiment: Competition assay to measure binding affinity at 5-HT1B receptor; details: test ligand 10 μM; [3H]GR125743 1 nM
T13 construct: host or cells: Chem-1 (RBL) cells

[4] = test system: C57BL/6-Elite male and female mice; experiment: Head Twitch Response (HTR) assay; format: in vivo, mouse; details: i.p. 6 mg/kg, 15-to-30-minute window following drug administration

T3 sequence (P31645 whole entry): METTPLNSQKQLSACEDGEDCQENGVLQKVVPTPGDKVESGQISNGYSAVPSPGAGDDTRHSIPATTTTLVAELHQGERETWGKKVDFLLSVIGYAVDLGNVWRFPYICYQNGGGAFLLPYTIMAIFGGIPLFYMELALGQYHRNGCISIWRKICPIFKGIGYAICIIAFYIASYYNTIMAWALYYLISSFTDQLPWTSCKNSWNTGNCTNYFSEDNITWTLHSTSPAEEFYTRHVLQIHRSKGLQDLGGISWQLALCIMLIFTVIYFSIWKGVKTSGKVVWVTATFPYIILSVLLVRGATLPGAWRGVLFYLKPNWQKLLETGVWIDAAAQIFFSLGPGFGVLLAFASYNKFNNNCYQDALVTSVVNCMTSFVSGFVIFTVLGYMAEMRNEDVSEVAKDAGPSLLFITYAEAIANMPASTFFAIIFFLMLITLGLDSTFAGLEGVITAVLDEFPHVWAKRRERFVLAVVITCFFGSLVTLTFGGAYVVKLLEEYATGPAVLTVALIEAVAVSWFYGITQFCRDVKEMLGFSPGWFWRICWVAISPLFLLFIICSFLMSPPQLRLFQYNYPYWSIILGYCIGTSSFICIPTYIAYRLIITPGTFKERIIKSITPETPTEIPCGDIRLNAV
T13 sequence (P28222 whole entry): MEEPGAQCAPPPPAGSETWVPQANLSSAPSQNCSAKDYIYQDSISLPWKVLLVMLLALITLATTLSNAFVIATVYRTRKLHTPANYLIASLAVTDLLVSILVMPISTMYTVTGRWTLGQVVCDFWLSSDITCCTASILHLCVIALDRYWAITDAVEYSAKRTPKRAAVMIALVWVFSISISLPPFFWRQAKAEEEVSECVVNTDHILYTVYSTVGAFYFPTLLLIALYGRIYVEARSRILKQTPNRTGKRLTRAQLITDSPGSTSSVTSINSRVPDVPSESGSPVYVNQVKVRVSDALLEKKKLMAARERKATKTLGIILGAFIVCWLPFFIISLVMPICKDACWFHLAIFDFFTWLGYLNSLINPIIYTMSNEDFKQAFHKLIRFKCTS
T10 sequence (P23975 whole entry): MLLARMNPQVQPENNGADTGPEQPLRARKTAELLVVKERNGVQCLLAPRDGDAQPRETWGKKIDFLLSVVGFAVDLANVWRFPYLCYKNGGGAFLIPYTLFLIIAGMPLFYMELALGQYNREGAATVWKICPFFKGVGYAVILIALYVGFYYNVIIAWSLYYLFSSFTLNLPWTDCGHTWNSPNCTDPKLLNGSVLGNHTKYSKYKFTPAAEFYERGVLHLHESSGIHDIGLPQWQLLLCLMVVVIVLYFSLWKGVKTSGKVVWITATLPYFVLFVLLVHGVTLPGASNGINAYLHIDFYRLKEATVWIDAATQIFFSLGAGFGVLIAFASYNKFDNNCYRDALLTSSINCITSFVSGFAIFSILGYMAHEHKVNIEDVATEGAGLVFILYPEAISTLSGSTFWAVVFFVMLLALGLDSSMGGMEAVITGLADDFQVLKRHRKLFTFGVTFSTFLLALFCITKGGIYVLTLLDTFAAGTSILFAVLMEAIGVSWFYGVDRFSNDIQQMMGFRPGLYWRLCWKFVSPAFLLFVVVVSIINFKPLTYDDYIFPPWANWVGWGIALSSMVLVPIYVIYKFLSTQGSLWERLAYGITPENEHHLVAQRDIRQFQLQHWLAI
T9 sequence (P48039 whole entry): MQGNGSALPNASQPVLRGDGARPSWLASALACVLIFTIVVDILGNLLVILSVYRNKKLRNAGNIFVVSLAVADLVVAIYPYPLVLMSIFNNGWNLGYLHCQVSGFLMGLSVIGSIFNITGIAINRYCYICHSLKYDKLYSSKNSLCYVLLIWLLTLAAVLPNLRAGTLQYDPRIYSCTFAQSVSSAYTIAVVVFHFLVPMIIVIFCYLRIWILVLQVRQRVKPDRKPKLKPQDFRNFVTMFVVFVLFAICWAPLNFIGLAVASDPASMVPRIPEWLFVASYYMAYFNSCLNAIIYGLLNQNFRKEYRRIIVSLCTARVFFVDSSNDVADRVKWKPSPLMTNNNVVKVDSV
T8 sequence (P41595 whole entry): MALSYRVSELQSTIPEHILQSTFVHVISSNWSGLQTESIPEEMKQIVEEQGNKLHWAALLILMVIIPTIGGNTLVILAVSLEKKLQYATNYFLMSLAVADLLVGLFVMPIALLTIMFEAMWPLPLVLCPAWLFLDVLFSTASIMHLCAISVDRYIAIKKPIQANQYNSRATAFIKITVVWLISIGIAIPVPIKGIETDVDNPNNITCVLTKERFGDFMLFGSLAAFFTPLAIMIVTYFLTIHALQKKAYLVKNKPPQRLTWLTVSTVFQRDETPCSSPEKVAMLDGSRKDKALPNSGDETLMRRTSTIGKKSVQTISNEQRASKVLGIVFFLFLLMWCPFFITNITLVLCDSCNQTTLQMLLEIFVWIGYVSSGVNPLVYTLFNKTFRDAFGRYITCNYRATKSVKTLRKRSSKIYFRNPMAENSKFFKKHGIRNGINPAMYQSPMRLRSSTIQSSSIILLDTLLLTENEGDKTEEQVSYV
T7 sequence (Q01959 whole entry): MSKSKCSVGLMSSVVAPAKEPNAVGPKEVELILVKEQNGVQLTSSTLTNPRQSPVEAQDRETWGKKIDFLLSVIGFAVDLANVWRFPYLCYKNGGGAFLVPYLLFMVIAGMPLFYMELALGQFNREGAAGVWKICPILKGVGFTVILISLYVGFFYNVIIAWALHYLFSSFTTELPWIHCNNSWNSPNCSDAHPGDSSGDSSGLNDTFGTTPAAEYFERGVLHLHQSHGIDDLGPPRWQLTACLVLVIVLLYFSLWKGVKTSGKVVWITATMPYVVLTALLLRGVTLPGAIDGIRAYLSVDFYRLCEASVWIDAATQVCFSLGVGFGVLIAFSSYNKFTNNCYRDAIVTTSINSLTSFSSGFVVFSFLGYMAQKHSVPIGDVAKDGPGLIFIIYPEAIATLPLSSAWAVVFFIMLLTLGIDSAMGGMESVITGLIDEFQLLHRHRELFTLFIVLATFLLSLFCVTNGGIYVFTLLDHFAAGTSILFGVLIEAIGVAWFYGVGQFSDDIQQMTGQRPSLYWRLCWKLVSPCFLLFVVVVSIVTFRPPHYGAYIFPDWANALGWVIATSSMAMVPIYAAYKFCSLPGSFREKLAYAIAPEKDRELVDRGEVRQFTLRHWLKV
T6 sequence (P35462 whole entry): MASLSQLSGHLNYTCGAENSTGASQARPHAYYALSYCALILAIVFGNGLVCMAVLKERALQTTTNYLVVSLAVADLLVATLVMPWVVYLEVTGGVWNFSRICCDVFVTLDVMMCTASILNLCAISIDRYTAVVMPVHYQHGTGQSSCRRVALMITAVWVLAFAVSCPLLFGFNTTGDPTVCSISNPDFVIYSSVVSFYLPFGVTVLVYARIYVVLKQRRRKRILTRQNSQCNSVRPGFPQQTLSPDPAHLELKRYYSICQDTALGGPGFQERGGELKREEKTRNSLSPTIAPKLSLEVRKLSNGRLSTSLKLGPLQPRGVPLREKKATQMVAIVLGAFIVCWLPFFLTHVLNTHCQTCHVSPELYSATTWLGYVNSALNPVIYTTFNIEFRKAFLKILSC
T1 sequence (P14416 whole entry): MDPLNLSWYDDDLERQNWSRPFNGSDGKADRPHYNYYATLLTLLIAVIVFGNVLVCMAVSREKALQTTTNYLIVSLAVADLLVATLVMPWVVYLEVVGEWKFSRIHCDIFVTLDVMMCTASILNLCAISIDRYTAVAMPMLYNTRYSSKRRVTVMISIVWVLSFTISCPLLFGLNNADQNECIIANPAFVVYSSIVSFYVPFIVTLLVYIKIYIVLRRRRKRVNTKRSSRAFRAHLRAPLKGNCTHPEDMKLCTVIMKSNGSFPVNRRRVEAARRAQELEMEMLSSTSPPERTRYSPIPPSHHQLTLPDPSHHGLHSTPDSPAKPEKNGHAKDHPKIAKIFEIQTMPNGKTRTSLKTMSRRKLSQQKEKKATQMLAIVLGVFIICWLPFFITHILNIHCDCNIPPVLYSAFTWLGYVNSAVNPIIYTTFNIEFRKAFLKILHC
T4 sequence (P28565 whole entry): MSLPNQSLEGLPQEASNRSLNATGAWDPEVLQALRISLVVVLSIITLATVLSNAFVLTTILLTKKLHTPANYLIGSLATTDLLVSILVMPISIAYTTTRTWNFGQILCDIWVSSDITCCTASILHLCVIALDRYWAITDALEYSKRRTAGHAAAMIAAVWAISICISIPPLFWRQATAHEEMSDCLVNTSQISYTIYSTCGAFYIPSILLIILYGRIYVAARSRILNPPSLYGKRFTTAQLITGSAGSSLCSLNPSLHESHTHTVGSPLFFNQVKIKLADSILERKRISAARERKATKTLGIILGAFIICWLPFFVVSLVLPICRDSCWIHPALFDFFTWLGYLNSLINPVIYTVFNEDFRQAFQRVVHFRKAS
5-HT2A receptor, sequence (P28223 whole entry): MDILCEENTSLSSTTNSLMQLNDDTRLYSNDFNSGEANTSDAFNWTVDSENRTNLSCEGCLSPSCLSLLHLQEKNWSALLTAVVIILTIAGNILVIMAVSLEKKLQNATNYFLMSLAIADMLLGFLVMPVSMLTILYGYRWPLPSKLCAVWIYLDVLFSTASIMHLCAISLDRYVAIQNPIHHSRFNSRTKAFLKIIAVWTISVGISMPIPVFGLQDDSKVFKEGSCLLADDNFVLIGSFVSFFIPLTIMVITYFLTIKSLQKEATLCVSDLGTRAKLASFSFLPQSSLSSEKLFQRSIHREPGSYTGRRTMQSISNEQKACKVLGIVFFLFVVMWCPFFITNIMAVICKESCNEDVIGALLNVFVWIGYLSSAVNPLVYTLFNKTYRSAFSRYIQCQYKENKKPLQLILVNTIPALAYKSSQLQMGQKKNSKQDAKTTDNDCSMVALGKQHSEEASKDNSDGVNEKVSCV

SMILES | D2, percent of control-specific binding (D2 (h)) | SERT binding, binding curve in words [2] | HT1D, percent of control-specific binding (5-HT1D (r)) | 5-HT1A receptor binding, binding curve in words (5-HT1A receptor) | D3, percent of control-specific binding (D3 (h)) | DAT, percent of control-specific binding (DAT (h)) | HT2B, percent of control-specific binding (5-HT2B (h)) | MT1, percent of control-specific binding (MT1 (ML1A) (h)) | incidences of ESR relative to vehicle-treated control mice [3] | NET, percent of control-specific binding (NET (h)) | HT2C, percent of control-specific binding (5-HT2C (h)) | HT1B, percent of control-specific binding (5-HT1B (h)) | incidences of HTR relative to vehicle-treated control mice [4] | further results
C[C@@H](N)[C@H]1CC[C@H](C(=O)Nc2ccncc2)CC1 [Y-27632, reference compound] |  |  |  |  |  |  |  |  |  |  |  |  |  | neurite outgrowth (β-III-tubulin immunofluorescence) compared to negative control [1]: strong signs of neurite outgrowth
CCOc1c(OC)cc(CCN)cc1OC [escaline] | 5% | bind SERT to varying degrees | 42% | binding to 5-HT1A receptor | 0% | 0% | 81% | 0% | Elevated incidences of ESR | 6% | 95% | 0% | Elevated incidences of HTR | α-2A, percent of control-specific binding (alpha2A (h)): 45%; Ki ([2]; read-out: SERT, Ki): 113 µM; Ki (5-HT1A receptor; competition with 0.5 nM 8-hydroxy-DPAT [3H], test compound 3 nM to 1 mM, read-out: 5-HT1A, Ki): 12.4 µM; HT7, percent of control-specific binding (5-HT7 (h)): 16%; Ki (5-HT2A receptor): 61 µM
CCCOc1c(OC)cc(CCN)cc1OC [proscaline, reference compound] | −11% | bind SERT to varying degrees | 25% | binding to 5-HT1A receptor | 4% | −2% | 85% | 3% | Elevated incidences of ESR | −9% | 97% | −13% | Elevated incidences of HTR | inhibition at 10 µM (alpha2A (h); read-out: α-2A, percent of control-specific binding): 40%; Ki [2]: 251 µM
